Assay results taken from publication PMC10082216 (Nature Communications, 2023).
Read-outs that look alike come from different tables or passages of the source.

Tested on: mature stage V gametocytes (NF54 strain)
Assay: microbe, parasite or virus in culture
Format: cell-based, Plasmodium falciparum
Settings: for IC50 / IC90: Plasmodium falciparum; for IC90: NF54, read-out: Retention IC90; for Retention IC10: Fig. 3 dose-response
Summary of the method: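 NF54 stage V gametocytes (day 17, density-purified, 0.5% hematocrit) exposed 24 h to compounds at 1.11 µM (primary) or in dose-response. Killing scored by MitoTracker staining; gametocytemia by Sybr Green/CellMask staining, with microsphiltration for stiffening. DMSO 0.05% negative control.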

[1] = NF54, 24 h, read-out: Stiffening IC50 (retention)

Structure (SMILES) | Retention 1 (Concentration 0.00457) | Retention 2 (Concentration 0.00457) | Retention 1 (Concentration 0.01372) | Retention 2 (Concentration 0.01372) | Retention 1 (Concentration 0.04115) | Retention 2 (Concentration 0.04115) | Retention 1 (Concentration 0.12346) | Retention 2 (Concentration 0.12346) | Retention 1 (Concentration 0.37037) | Retention 2 (Concentration 0.37037) | Retention 1 (Concentration 1.11111) | Retention 2 (Concentration 1.11111) | Retention 1 (Concentration 3.33333) | Retention 2 (Concentration 3.33333) | Retention 1 (Concentration 10) | Retention 2 (Concentration 10) | IC50 [1] [nM] | IC90 [nM] | Retention IC10 [nM] | also measured
COc1cc2c(cc1OC)[C@@H]1Cc3ccc(OC)c(OC)c3CN1CC2 [(S)-(-)-Tetrahydropalmatine] | 36.1518 | 18.1904 | 42.4295 | 17.9082 | 39.0679 | 21.6203 | 52.9692 | 17.6021 | 34.5737 | 33.9194 | 41.4215 | 25.646 | 50.7426 | 20.0803 | 49.3139 | 22.5855 | 1 | 6 |  | 
C[C@H]1Cc2c([nH]c3cc(Cl)c(F)cc23)[C@@]2(N1)C(=O)Nc1ccc(Cl)cc12 [NITD609, cipargamin] | 5.495 | 24.2833 | 19.4986 | 27.3994 | 24.1896 | 16.3872 | 74.5556 | 59.61 | 100 | 100 | 100 | 94.1314 | 100 | 100 | 100 | 100 | 110 | 160 | 60 | 
CNC(=O)N1C[C@@H](C)N(c2ccc(C(=O)Nc3ccc(-c4ccc(-c5c[nH]c([C@@H]6CCCN6C(=O)[C@@H](NC(=O)OC)C(C)C)n5)cc4)c(OC(F)(F)F)c3)cn2)C[C@@H]1C [TD-6450] | 6.791 | 14.2035 | 30.2208 | 10.7025 | 30.7002 | 37.9062 | 45.793 | 33.0106 | 16.5379 | 35.496 | 46.8849 | 58.9321 | 60.4317 | 53.8901 | 70.8882 | 66.7706 | 550 | 4500 | 30 | outcome of primary screen (hit definition) (1.11 µM): met the hit definition; IC50 (NF54, read-out: IC50 during the screening campaign, all gametocytes stained): 455 ± 304 nM; differential retention rate versus DMSO upon primary screening (one well/compound, 1.11 µM): 32%
